The text below walks through data of article PMC6309603 (Molecular diversity, 2018).

For experiment [1], the target named is AChE (Homo sapiens, UniProt P22303). Nature of the experiment: biochemical. The conditions noted are these: for Selectivity for AChE: IC50 (BChE)/IC50 (AChE).
Experiment [2] concerns the target BChE (Homo sapiens, UniProt P06276). Nature of the experiment: biochemical.
Where [3] appears, read: read-out: IC50 AChE, means±SD of three assays, 30 min, 30 °C, pH 8.0.
Where [4] appears, read: read-out: IC50 BChE, means±SD of three assays, 30 min, 30 °C, pH 8.0.

Read-outs that look alike come from different tables or passages of the source.

Sequence of AChE (P22303 32-614): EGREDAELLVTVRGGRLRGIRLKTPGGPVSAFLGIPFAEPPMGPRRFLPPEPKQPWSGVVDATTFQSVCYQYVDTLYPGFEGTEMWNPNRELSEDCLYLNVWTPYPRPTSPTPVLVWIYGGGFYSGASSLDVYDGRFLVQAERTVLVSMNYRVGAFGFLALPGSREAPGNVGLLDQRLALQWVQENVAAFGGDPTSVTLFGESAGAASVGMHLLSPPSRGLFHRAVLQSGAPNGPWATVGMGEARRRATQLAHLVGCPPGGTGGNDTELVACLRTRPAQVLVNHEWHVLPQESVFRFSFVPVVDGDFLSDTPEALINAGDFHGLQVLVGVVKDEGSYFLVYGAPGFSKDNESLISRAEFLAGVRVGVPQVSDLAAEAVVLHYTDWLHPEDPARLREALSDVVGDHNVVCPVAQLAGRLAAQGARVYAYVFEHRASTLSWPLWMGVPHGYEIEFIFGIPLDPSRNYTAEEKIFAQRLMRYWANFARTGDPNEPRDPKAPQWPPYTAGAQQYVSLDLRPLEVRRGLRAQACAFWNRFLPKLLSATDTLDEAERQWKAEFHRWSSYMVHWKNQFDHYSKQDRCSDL
Sequence of BChE (P06276 29-602): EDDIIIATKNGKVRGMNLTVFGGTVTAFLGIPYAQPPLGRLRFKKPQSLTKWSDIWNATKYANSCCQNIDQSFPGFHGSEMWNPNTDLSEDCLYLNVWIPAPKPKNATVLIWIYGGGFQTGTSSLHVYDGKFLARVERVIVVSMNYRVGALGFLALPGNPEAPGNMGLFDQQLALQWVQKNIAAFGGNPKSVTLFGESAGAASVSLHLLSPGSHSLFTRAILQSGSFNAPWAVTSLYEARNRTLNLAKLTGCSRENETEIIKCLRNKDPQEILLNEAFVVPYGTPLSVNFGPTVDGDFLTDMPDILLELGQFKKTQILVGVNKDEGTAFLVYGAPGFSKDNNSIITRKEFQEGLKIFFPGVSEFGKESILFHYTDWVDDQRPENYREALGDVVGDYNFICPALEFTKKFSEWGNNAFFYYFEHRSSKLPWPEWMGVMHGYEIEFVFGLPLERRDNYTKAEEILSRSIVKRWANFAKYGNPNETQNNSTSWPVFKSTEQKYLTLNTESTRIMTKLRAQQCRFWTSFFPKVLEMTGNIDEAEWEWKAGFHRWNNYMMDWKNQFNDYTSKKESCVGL

For the compound `CN(C)C(=O)COc1ccc(/C=C/C(=O)c2cc3ccccc3oc2=O)cc1` [Compound 9d, (E)-N,N-dimethyl-2-(4-(3-oxo-3-(2-oxo-2H-chromen-3-yl)prop-1-en-1-yl)phenoxy)acetamide], in experiment [1], inhibition was half-maximal at 18.6 ± 1.06 µM (IC50) and the “Selectivity for AChE” value is given as over 26.86. Also, in experiment [2], the IC50 (in general, the concentration that inhibits the measured activity by half) is over 500 µM.
On the same counts, the results for `CN(C)CCOc1cccc(/C=C/C(=O)c2cc3ccccc3oc2=O)c1` [Compound 6d, (E)-3-(3-(3-(2-(dimethylamino)ethoxy)phenyl)acryloyl)-2H-chromen-2-one] are 0.92 ± 0.07 µM, 16.64 and 15.3 ± 1.16 µM.
As for `CC(C)=CCOc1ccc(/C=C/C(=O)c2cc3ccccc3oc2=O)cc1` [Compound 5j, (E)-3-(3-(4-(3-methylbut-2-enyloxy)phenyl)-prop-2-enoyl)-2H-chromen-2-one], the IC50 in experiment [1] and in experiment [2] was over 500 µM each time.
In the case of `O=C(/C=C/c1cccc(OCCN2CCOCC2)c1)c1cc2ccccc2oc1=O` [Compound 6h, (E)-3-(3-(3-(2-morpholinoethoxy)phenyl)acryloyl)-2H-chromen-2-one], the IC50 in experiment [1] and in experiment [2] was over 500 µM throughout.
`O=C(/C=C/c1ccccc1OCC(=O)N1CCCCC1)c1cc2ccccc2oc1=O` [Compound 11f, (E)-3-(3-(2-(2-oxo-2-(piperidin-1-yl)ethoxy)phenyl)acryloyl)-2H-chromen-2-one]: the IC50 is over 500 µM in experiment [1] and 106 ± 3.09 µM in experiment [2].
On the same counts, the results for `O=C(/C=C/c1cccc(OCC(=O)N2CCCC2)c1)c1cc2ccccc2oc1=O` [Compound 10e, (E)-3-(3-(3-(2-oxo-2-(pyrrolidin-1-yl)ethoxy)phenyl)acryloyl)-2H-chromen-2-one] are over 500 µM and over 500 µM.
Take `COc1cc(/C=C/C(=O)c2cc3ccccc3oc2=O)ccc1OCCN(C)C` [Compound 12k, (E)-3-(3-(4-(2-(dimethylamino)ethoxy)-3-methoxyphenyl)acryloyl)-2H-chromen-2-one]: in experiment [1], it took 1.65 ± 0.09 µM to reach half-maximal inhibition (IC50) and the “Selectivity for AChE” value was determined as 5.15. Moreover, the IC50 in experiment [2] is 8.48 ± 0.29 µM.
On the same counts, the results for `COc1cc(/C=C/C(=O)c2cc3ccccc3oc2=O)ccc1OCCN1CCCC1` [Compound 12l, (E)-3-(3-(3-methoxy-4-(2-(pyrrolidin-1-yl)ethoxy)phenyl)acryloyl)-2H-chromen-2-one] are 1.67 ± 0.04 µM, 0.28 and 0.46 ± 0.01 µM.
As to `CCN(CC)CCOc1cccc(/C=C/C(=O)c2cc3ccccc3oc2=O)c1` [Compound 6g, (E)-3-(3-(3-(2-(diethylamino)ethoxy)phenyl)acryloyl)-2H-chromen-2-one], in experiment [1], the 50% inhibitory concentration (IC50) turned out to be 51.3 ± 1.04 µM and the “Selectivity for AChE” value came to 0.02. Also, in experiment [2], the IC50 was 1.12 ± 0.11 µM.
The like results for `O=C(/C=C/c1ccc(OCCN2CCCCC2)cc1)c1cc2ccccc2oc1=O` [Compound 5f, (E)-3-(3-(4-(2-(piperidin-1-yl)ethoxy)phenyl)acryloyl)-2H-chromen-2-one] were, in that order, 0.69 ± 0.06 µM, 1.49 and 1.03 ± 0.05 µM.
As to `CN(C)C(=O)COc1ccccc1/C=C/C(=O)c1cc2ccccc2oc1=O` [Compound 11d, (E)-N,N-dimethyl-2-(2-(3-oxo-3-(2-oxo-2H-chromen-3-yl)prop-1-en-1-yl)phenoxy)acetamide], the IC50 in experiment [1] and in experiment [2] was over 500 µM each time.
In the case of `O=C(/C=C/c1ccc(OCCN2CCOCC2)cc1)c1cc2ccccc2oc1=O` [Compound 5h, (E)-3-(3-(4-(2-morpholinoethoxy)phenyl)acryloyl)-2H-chromen-2-one], the IC50 in experiment [1], in experiment [1] (setting [3]), in experiment [2] and in experiment [2] (setting [4]) was over 500 µM throughout. Besides, the “inhibitory activity against AChE (in words)” value in experiment [1] is recorded as “almost has no inhibitory activity”. Moreover, in experiment [2], the “inhibitory activity against BChE (in words)” value is recorded as “almost has no inhibitory activity”.
With `O=C(/C=C/c1ccccc1OCCN1CCCC1)c1cc2ccccc2oc1=O` [Compound 7e, (E)-3-(3-(2-(2-(pyrrolidin-1-yl)ethoxy)phenyl)acryloyl)-2H-chromen-2-one], in experiment [1], the IC50 came out at 230 ± 14.8 µM, the “inhibitory activity against AChE (in words)” value is given as “poor inhibitory activity”, the “selectivity over BChE (in words)” value is “poor selectivity” and the “Selectivity for AChE” value came to 0.02. The compound also gave an IC50 in experiment [2] of 3.76 ± 0.35 µM.
With `O=C(/C=C/c1ccccc1OCCN1CCOCC1)c1cc2ccccc2oc1=O` [Compound 7h, (E)-3-(3-(2-(2-morpholinoethoxy)phenyl)acryloyl)-2H-chromen-2-one], in experiment [1], the IC50 stood at 261 ± 4.17 µM and the “Selectivity for AChE” value is given as 0.11. For the same compound, the IC50 in experiment [2] turned out to be 29 ± 1.23 µM.
The like results for `COc1cc(/C=C/C(=O)c2cc3ccccc3oc2=O)cc(OC)c1OCCN1CCCC1` [Compound 13l, (E)-3-(3-(3,5-dimethoxy-4-(2-(pyrrolidin-1-yl)ethoxy)phenyl)acryloyl)-2H-chromen-2-one] were, in that order, 29 ± 1.68 µM, 0.47 and 13.6 ± 0.53 µM.
With `CC(C)CCOc1ccccc1/C=C/C(=O)c1cc2ccccc2oc1=O` [Compound 7i, (E)-3-(3-(2-(isopentyloxy)phenyl)acryloyl)-2H-chromen-2-one], the IC50 in experiment [1] and in experiment [2] was over 500 µM throughout.
As for `COc1cc(/C=C/C(=O)c2cc3ccccc3oc2=O)cc(OC)c1OCCN(C)C` [Compound 13k, (E)-3-(3-(4-(2-(dimethylamino)ethoxy)-3,5-dimethoxyphenyl)acryloyl)-2-chromen-2-one], the “Selectivity for AChE” value in experiment [1] came to 1.87. Further, the IC50 was 7.07 ± 0.46 µM in experiment [1] (setting [3]) and 13.2 ± 0.32 µM in experiment [2] (setting [4]).
In the case of `CN(C)CCOc1ccccc1/C=C/C(=O)c1cc2ccccc2oc1=O` [Compound 7d, (E)-3-(3-(2-(2-(dimethylamino)ethoxy)phenyl)acryloyl)-2H-chromen-2-one], in experiment [1], the IC50 is 16.4 ± 0.22 µM and the “Selectivity for AChE” value is recorded as 0.92. Besides, the IC50 in experiment [2] came out at 15.2 ± 0.6 µM.
`CC(C)=CCOc1cccc(/C=C/C(=O)c2cc3ccccc3oc2=O)c1` [Compound 6j, (E)-3-(3-(3-(3-methylbut-2-enyloxy)phenyl)-prop-2-enoyl)-2H-chromen-2-one]: the IC50 in experiment [1] and in experiment [2] was over 500 µM in each case.
On to `O=C(/C=C/c1ccccc1OCC(=O)N1CCCC1)c1cc2ccccc2oc1=O` [Compound 11e, (E)-3-(3-(2-(2-oxo-2-(pyrrolidin-1-yl)ethoxy)phenyl)acryloyl)-2H-chromen-2-one], for which the half-inhibitory concentration (IC50) in experiment [1] and in experiment [2] was over 500 µM throughout.
As for `CC(C)CCOc1cccc(/C=C/C(=O)c2cc3ccccc3oc2=O)c1` [Compound 6i, (E)-3-(3-(3-(isopentyloxy)phenyl)acryloyl)-2H-chromen-2-one], the IC50 in experiment [1] and in experiment [2] was over 500 µM throughout.
As for `O=C(/C=C/c1cccc(OCCN2CCCC2)c1)c1cc2ccccc2oc1=O` [Compound 6e, (E)-3-(3-(3-(2-(pyrrolidin-1-yl)ethoxy)phenyl)acryloyl)-2H-chromen-2-one], in experiment [1], the 50% inhibitory concentration (IC50) was 3.25 ± 0.14 µM, the “inhibitory activity against AChE (in words)” value is “moderate inhibitory activity”, the “selectivity over BChE (in words)” value is “low selectivity” and the “Selectivity for AChE” value was determined as 1.42. The same compound gave an IC50 in experiment [2] of 4.62 ± 0.16 µM.
In the case of `CC(C)CCOc1ccc(/C=C/C(=O)c2cc3ccccc3oc2=O)cc1` [Compound 5i, (E)-3-(3-(4-(isopentyloxy)phenyl)acryloyl)-2H-chromen-2-one], the IC50 in experiment [1] and in experiment [2] was over 500 µM in each case.
Consider `O=C(/C=C/c1ccc(OCC(=O)N2CCCCC2)cc1)c1cc2ccccc2oc1=O` [Compound 9f, (E)-3-(3-(4-(2-oxo-2-(piperidin-1-yl)ethoxy)phenyl)acryloyl)-2H-chromen-2-one], for which the IC50 in experiment [1] and in experiment [2] was over 500 µM each time.
Consider `CCN(CC)CCOc1ccc(/C=C/C(=O)c2cc3ccccc3oc2=O)cc1` [Compound 5g, (E)-3-(3-(4-(2-(diethylamino)ethoxy)phenyl)acryloyl)-2H-chromen-2-one], for which the IC50 in experiment [1] came to 4.34 ± 0.29 µM; in experiment [2] it was 6.21 ± 0.19 µM. In addition, the “Selectivity for AChE” value in experiment [1] is reported as 1.43.
In the case of `CN(C)CCOc1ccc(/C=C/C(=O)c2cc3ccccc3oc2=O)cc1` [Compound 5d, (E)-3-(3-(4-(2-(dimethylamino)ethoxy)phenyl)acryloyl)-2H-chromen-2-one], the IC50 is 0.37 ± 0.03 µM in experiment [1] and over 500 µM in experiment [2].
For the compound `COc1cc(/C=C/C(=O)c2cc3ccccc3oc2=O)ccc1OCCN1CCCCC1` [Compound 12m, (E)-3-(3-(3-methoxy-4-(2-(piperidin-1-yl)ethoxy)phenyl)acryloyl)-2H-chromen-2-one], the IC50 in experiment [1] was determined as 0.37 ± 0.02 µM; in experiment [2] it was 0.52 ± 0.01 µM. In addition, in experiment [1], the “Selectivity for AChE” value is listed as 1.41.
For `O=C(/C=C/c1cccc(OCCN2CCCCC2)c1)c1cc2ccccc2oc1=O` [Compound 6f, (E)-3-(3-(3-(2-(piperidin-1-yl)ethoxy)phenyl)acryloyl)-2H-chromen-2-one], in experiment [1], the IC50 worked out at 0.61 ± 0.02 µM and the “Selectivity for AChE” value is listed as 6.61. The compound further returned an IC50 in experiment [2] of 4.01 ± 0.14 µM.
Regarding `CN(C)C(=O)COc1cccc(/C=C/C(=O)c2cc3ccccc3oc2=O)c1` [Compound 10d, (E)-N,N-dimethyl-2-(3-(3-oxo-3-(2-oxo-2H-chromen-3-yl)prop-1-en-1-yl)phenoxy)acetamide], in experiment [1], the IC50 was over 500 µM and the “Selectivity for AChE” value is listed as under 0.09. In addition, in experiment [2], half-maximal inhibition (IC50) required 44 ± 2.37 µM.
Take `O=C(/C=C/c1cccc(OCC(=O)N2CCCCC2)c1)c1cc2ccccc2oc1=O` [Compound 10f, (E)-3-(3-(3-(2-oxo-2-(piperidin-1-yl)ethoxy)phenyl)acryloyl)-2H-chromen-2-one]: the IC50 in experiment [1] worked out at 152 ± 12.8 µM; in experiment [2], 223 ± 11.5 µM. Moreover, the “Selectivity for AChE” value in experiment [1] was 1.46.
